Assay [1] addresses T1, Sheep seminal vesicle (SSV) cyclooxygenase (Ovis aries, UniProt P05979).
T1 construct: Sheep seminal vesicle (SSV) cyclooxygenase (95% pure); purchased Biomol (Plymouth Meeting, PA); host or cells: sheep seminal vesicle
T1 sequence (P05979 25-600): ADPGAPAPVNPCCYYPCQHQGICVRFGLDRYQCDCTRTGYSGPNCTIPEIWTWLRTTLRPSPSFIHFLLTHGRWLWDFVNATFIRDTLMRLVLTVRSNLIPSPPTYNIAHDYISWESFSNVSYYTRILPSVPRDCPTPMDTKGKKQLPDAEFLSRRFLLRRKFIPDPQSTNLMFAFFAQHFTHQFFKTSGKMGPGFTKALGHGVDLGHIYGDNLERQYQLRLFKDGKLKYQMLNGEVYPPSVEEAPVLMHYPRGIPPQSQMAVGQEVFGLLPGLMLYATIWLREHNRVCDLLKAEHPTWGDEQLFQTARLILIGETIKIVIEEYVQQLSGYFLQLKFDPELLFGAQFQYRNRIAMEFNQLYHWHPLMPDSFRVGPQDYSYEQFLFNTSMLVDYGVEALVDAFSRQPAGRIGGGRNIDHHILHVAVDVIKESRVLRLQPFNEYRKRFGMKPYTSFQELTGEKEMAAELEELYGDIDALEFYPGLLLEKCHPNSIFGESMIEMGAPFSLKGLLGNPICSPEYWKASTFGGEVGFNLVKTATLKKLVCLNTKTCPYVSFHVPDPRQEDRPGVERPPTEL
As to the kind of experiment: Procedure I: inhibition of sheep seminal vesicle (SSV) cyclooxygenase. Format: biochemical. Conditions: SSV cyclooxygenase; for inhibition at 10 µM: 20 min, @ 10 .quadrature.M, read-out: Proc. I % inhibition; for IC50: read-out: Proc. I IC50. On the procedure:
Procedure I was used to determine the ability of the compounds to inhibit cyclooxygenase. […] The enzyme was divided into 200 μL aliquots, snap frozen with liquid N2, and stored at -70° C. until immediately prior to use. […] The tubes were mixed on a vortex shaker, preincubated for 5 min at 37° C. prior to the initiation of the reaction. The reaction was started by the addition of [^14 C]-arachidonic acid (1-^14 C-AA, Amersham, Arlington Heights, Ill.) in 10 μL of methanol. Tubes were again vortexed and incubated in a water bath for 20 minutes after which the tubes were removed and the reaction stopped by acidification with the addition of 1 mL 2M formic acid. Lipophilic products were extracted with 3 mL chloroform and concentrated to dryness under N2. Each pellet was reconstituted with 40 μL of chloroform and spotted on a Whatman Silicon thin-layer chromatography plate and developed in a chromatography tank containing A-9 solvent (11:5:2:1 V:V:VV, ethyl acetate:trimethyl-pentane:acetic acid:double distilled-H2 O). Radioactive cyclooxygenase products (prostaglandin D2, prostaglandin E2, etc.) were measured using a Bioscan System 200 Imaging Scanner. Inhibition of enzyme activity was calculated by comparing the areas under the curve produced in the presence or absence of test compound.

In assay [2] the target is T2, 5-LO (Rattus norvegicus, UniProt P12527).
T2 construct: the supernatant was saved as the source of enzymes; endogenous in cells; host or cells: RBL-1 (rat basophilic leukemia) cells
T2 sequence (P12527 1-673): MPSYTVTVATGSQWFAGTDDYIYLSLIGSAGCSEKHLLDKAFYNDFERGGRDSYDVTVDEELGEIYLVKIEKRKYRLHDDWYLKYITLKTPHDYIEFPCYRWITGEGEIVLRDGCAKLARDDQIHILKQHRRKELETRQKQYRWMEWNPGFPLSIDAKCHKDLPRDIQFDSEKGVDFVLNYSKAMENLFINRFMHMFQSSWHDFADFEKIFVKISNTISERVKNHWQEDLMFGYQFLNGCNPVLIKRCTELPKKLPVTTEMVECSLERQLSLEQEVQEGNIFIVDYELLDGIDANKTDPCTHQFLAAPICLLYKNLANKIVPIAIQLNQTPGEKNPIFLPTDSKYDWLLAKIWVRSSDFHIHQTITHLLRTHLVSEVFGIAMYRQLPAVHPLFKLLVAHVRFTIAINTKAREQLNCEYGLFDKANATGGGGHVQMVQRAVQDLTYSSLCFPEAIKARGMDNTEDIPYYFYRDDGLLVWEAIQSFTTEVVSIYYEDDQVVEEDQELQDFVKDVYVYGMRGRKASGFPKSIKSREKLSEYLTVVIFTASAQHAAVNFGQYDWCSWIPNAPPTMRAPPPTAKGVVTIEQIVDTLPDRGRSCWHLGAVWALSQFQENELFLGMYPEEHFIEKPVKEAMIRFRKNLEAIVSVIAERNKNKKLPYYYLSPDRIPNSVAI
As to the kind of experiment: Procedure III: 5-LO (5-HETE) in intact RBL-1 cells. Format: cell-based. Conditions: calcium ionophore A 23187, read-out: Proc. III 5-LO IC50. On the procedure: (§1) The IC50 was determined using a curve fit in Cricket Graph (Computer Associated), which provided the equation of the regressed line used in the calculation.
(§2) In Procedure III, the ability to inhibit 5-LO and CO in intact RBL-1 cells was also evaluated. […] Cells were collected by centrifugation, washed once in HBSS, and resuspended at a concentration of 1×10^5 cells/mL. Cells were incubated in the presence of vehicle or drug then centrifuged at 800×g for 10 minutes at 4° C. The supernatant was removed by aspiration and the cells were resuspended in 0.5 mL of HBSS. […] The conversion of AA to 5-LO products was initiated by the addition of 10 μL (50 μCi) of 1-^14 C-AA. Products were isolated by acidification and extraction, followed by thin layer chromatography analysis as described above. Radioactive areas corresponding to authentic 5-LO (5-HETE) and CO (PgD2) products were quantitated by the Bioscan 2000 Imaging System and the IC50 was calculated as above.

For assay [3], the target named is T2, 5-LO. Kind of assay: Procedure II: 5-LO activity (5-HETE) in broken RBL-1 cells (homogenate supernatant). Format: biochemical. The conditions noted are these: RBL-1 broken cell supernatant; for IC50: read-out: Proc. II 5-LO IC50; for inhibition at 10 µM: 20 min, @ 10 .quadrature.M, read-out: Proc. II 5-LO % inhibition. The method, then:
(§3) Procedure II was used to assess LO and CO activity. Rat basophilic leukemia cells (RBL-1; 5×10^7 viable cells/mL) were disrupted by homogenization on ice (four 20 sec bursts) with a Brinkman polytron. […] The homogenate was then centrifuged at 9,220×g for 48 minutes at 4° C. The pellet was discarded and the supernatant was saved as the source of enzymes. The supernatant was pre-incubated for five minutes at 37° C. in the presence of 2 mM of CaCl2 and compound or vehicle (1% DMSO). The conversion of AA into products by CO and LO was initiated by adding 10 μL (50 μCi) of 1-^14 C-AA to each tube and incubated at 37° C. for 20 minutes. The reaction was stopped by adjusting the pH of each sample to 3 to 3.5 with 2M formic acid. Samples were extracted with three volumes of chloroform to isolate the products of 5-LO formed during the reaction. Fractions were dried under nitrogen, then resuspended in 40 μL of chloroform and spotted onto silica gel HL plates. The plates were developed in A-9 solvent. The dried plates were analyzed using a Bioscan Imaging TLC scanner to determine the percentage of radiolabelled AA converted to 5-HETE (LO product) in each sample. The percentage of inhibition was calculated by:
(§4) [1-(5-HETE test)]/5-HETE control×100=% inhibition
as §1

Assay [4] deals with T3, CO (Rattus norvegicus, UniProt Q63921).
T3 construct: the supernatant was saved as the source of enzymes; endogenous in cells; host or cells: RBL-1 (rat basophilic leukemia) cells
T3 sequence (Q63921 27-602): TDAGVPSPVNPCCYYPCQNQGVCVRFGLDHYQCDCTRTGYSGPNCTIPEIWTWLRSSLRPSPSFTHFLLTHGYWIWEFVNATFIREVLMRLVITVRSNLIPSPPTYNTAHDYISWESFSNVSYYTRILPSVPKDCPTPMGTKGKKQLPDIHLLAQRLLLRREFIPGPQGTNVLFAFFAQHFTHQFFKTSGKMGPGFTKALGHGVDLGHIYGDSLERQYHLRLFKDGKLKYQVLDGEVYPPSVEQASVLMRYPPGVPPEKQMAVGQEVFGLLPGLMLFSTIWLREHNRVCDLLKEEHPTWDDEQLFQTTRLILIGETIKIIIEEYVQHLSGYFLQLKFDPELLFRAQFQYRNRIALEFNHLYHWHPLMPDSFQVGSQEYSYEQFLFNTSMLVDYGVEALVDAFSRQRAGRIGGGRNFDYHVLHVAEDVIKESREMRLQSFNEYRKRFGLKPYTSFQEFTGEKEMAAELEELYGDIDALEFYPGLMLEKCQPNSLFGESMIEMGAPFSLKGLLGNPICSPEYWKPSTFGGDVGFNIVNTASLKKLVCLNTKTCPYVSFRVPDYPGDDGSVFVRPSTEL
As to the kind of experiment: Procedure III: CO (PgD2) in intact RBL-1 cells. The conditions noted are these: calcium ionophore A 23187, read-out: Proc. III CO IC50. The class given is cell-based. The method, then:
as §1, §2

Assay [5] concerns the target T3, CO. Kind of assay: Procedure II: CO activity in broken RBL-1 cells (homogenate supernatant). The class given is biochemical. Conditions: RBL-1 broken cell supernatant; for IC50: read-out: Proc. II CO IC50; for inhibition at 10 µM: 20 min, @ 10 .quadrature.M, read-out: Proc. II CO % inhibition. On the procedure:
as §3, §4, §1

These results are taken from patent US5925769A, “Acetylenic 1,5-diarylpyrazoles as antiinflammatory agents” (Ortho Pharmaceutical, Corp., priority 1998, dated 1999).

Regarding `COc1ccc(-n2nc(C#CC(C)N(O)C(N)=O)cc2-c2ccc(C)cc2)cc1` (stereo not drawn) [Cpd 2, N-hydroxy-N-(1-(1-(4-methoxyphenyl)-5-(4-methylphenyl)pyrazol-3-yl)-1-butyn-3-yl)urea], the inhibition at 10 µM in assay [1] is 10%. For the same compound, the IC50 in assay [2] was 7.7 µM; in assay [3], 0.37 µM; in assay [4], 1.4 µM; in assay [5] it was 9.4 µM.

On to `CCC(C#Cc1cc(-c2ccc(C)cc2)n(-c2ccc(OC)cc2)n1)N(O)C(N)=O` (stereo not drawn) [Cpd 3], for which the inhibition at 10 µM in assay [1] worked out at 22%. The IC50 in assay [2] stood at 21.3 µM; in assay [3], 0.07 µM; in assay [4], 2.1 µM; in assay [5] it was 15.9 µM.

Regarding `COc1ccc(-n2nc(C#CC(C(C)C)N(O)C(N)=O)cc2-c2ccc(C)cc2)cc1` (stereo not drawn) [Cpd 4], in assay [1], the inhibition at 10 µM stood at 29%. Also, the IC50 in assay [2] is 8.4 µM; in assay [3] it was 0.24 µM; in assay [4], 1.2 µM; in assay [5], 4.6 µM.

For `COc1ccc(-n2nc(C#CC(C)N(O)C(N)=O)cc2-c2ccc(Cl)cc2)cc1` (stereo not drawn) [Cpd 6], the IC50 in assay [1] worked out at 32 µM; in assay [2], 3.5 µM; in assay [3] it was 0.01 µM; in assay [4] it was 6.2 µM. Besides, in assay [5], the inhibition at 10 µM is 0%.

As for `COc1ccc(-n2nc(C#CC(C)N(O)C(=O)N3CCOCC3)cc2-c2ccc(Cl)cc2)cc1` (stereo not drawn) [Cpd 10], the inhibition at 10 µM stood at 14% in assay [1], 81% in assay [3] and 58% in assay [5]. Besides, the IC50 in assay [2] came to 12 µM; in assay [4], 1.6 µM.

As to `CCC(C#Cc1cc(-c2ccc(Cl)cc2)n(-c2ccc(OC)cc2)n1)N(O)C(N)=O` (stereo not drawn) [Cpd 11], the inhibition at 10 µM in assay [1] was 0%; in assay [3] it was 91%; in assay [5] it was 30%. Further, the IC50 came to 2.17 µM in assay [2] and 70.4 µM in assay [4].

With `COc1ccc(-n2nc(C#CC(C(C)C)N(O)C(N)=O)cc2-c2ccc(Cl)cc2)cc1` (stereo not drawn) [Cpd 12], the results for the inhibition at 10 µM in assay [1], in assay [3] and in assay [5] were 38%, 90% and 0%, respectively. Besides, the IC50 came out at 3.9 µM in assay [2] and 14.5 µM in assay [4].

On to `COc1ccc(-n2nc(C#CCN(O)C(C)=O)cc2-c2ccc(C)cc2)cc1` [Cpd 13, N-acetyl-N-(1-(1-(4-methoxyphenyl)-5-(4-methylphenyl)pyrazol-3-yl)-1-propyn-3-yl)hydroxylamine], for which the inhibition at 10 µM in assay [1] stood at 74%; in assay [3], 100%; in assay [5], 100%. The results for the IC50 in assay [2] and in assay [4] were 7.2 µM and 0.03 µM, respectively.

In the case of `CCC(=O)N(O)CC#Cc1cc(-c2ccc(C)cc2)n(-c2ccc(OC)cc2)n1` [Cpd 14], the inhibition at 10 µM was found to be 79% in assay [1], 100% in assay [3] and 100% in assay [5]. Further, the IC50 in assay [2] came to 3 µM; in assay [4], 0.06 µM.

On to `COc1ccc(-n2nc(C#CCN(O)C(=O)c3ccncc3)cc2-c2ccc(C)cc2)cc1` [Cpd 16], for which the inhibition at 10 µM is 17% in assay [1], 89% in assay [3] and 66% in assay [5]. The values for the IC50 in assay [2] and in assay [4] were 26.6 µM and 5.5 µM, respectively.

Turning to `COC(=O)N(O)CC#Cc1cc(-c2ccc(C)cc2)n(-c2ccc(OC)cc2)n1` [Cpd 17, N-methoxycarbonyl-N-(1-(1-(4-methoxyphenyl)-5-(4-methylphenyl)pyrazol-3-yl)-1-propyn-3-yl)hydroxylamine], the inhibition at 10 µM in assay [1] is 74%; in assay [3], 100%; in assay [5] it was 100%. Besides, the results for the IC50 in assay [2] and in assay [4] were 8.8 µM and 0.28 µM, respectively.

For the compound `COc1ccc(-n2nc(C#CC(C)N(O)C(C)=O)cc2-c2ccc(C)cc2)cc1` (stereo not drawn) [Cpd 18, N-Acetyl-N-(1-(1-(4-methoxyphenyl)-5-(4-methylphenyl)pyrazol-3-yl)-1-butyn-3-yl)hydroxylamine], the IC50 was determined as 0.31 µM in assay [1]; 13.1 µM in assay [2]; 0.08 µM in assay [3]; 0.11 µM in assay [4]; 0.01 µM in assay [5].

A word on the inhibition: it is the percentage by which the read-out fell short of the control. In general, IC50 refers to the point on the concentration scale where inhibition reaches its midpoint.
